Measured values: PMC9610081, “Design and Synthesis of Aminopyrimidinyl Pyrazole Analogs as PLK1 Inhibitors Using Hybrid 3D-QSAR and Molecular Docking” (Pharmaceuticals, 2022)

Target: PLK1 (polo-like kinase 1) (Homo sapiens, UniProt P53350)
Experiment: radiometric […]-ATP kinase assay, casein substrate, […] ATP (Reaction Biology)
Format: biochemical

PLK1 (polo-like kinase 1), sequence (P53350 2-603): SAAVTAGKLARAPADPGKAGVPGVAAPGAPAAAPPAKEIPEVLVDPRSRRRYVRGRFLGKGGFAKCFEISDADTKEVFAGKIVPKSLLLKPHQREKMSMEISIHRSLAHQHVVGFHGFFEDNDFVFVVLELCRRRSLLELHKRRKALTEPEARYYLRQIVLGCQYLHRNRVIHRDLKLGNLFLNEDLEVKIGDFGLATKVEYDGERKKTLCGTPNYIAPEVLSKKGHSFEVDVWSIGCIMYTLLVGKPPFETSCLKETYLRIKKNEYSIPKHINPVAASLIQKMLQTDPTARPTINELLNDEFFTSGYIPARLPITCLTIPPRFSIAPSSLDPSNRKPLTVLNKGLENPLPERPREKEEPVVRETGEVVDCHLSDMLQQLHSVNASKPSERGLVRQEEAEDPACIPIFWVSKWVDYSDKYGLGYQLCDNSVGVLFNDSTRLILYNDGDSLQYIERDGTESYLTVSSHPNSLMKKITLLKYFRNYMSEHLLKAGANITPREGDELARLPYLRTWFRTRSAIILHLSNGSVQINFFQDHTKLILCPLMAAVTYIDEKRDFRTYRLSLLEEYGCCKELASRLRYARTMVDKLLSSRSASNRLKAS

CCOC(=O)c1nn(-c2ccnc(Nc3ccc4c(c3)N(C(=O)N(C)C)CC4)n2)cc1/C=C/c1ccccc1 [D39, Ethyl (E)-1-(2-((1-(dimethylcarbamoyl)indolin-6-yl)amino)pyrimidin-4-yl)-4-styryl-1H-pyrazole-3-carboxylate]
IC50: 1430 nM

CN(C)C(=O)N1CCc2ccc(Nc3nccc(-n4cc(/C=C/c5ccccc5)c(C(N)=O)n4)n3)cc21 [D40, (E)-6-((4-(3-carbamoyl-4-styryl-1H-pyrazol-1-yl)pyrimidin-2-yl)amino)-N,N-dimethylindoline-1-carboxamide]
IC50: 359 nM
